Measured values from patent US20090312340A1 (priority 2007, published 2009).

Tests used:
[1] = tested on: patients with non-ST elevation acute coronary syndrome; experiment: MERLIN-TIMI 36: arrhythmias on continuous ECG (Holter) recording, first 7 days; type: in vivo, human; conditions: group allocated to ranolazine
[2] = tested on: patients with NSTE-ACS who underwent PCI; experiment: MERLIN-TIMI 36 post-hoc analysis: VT, CV death and sudden cardiac death after PCI; type: in vivo, human; conditions: n = 737
Description: The incidence of ventricular tachyarrhythmias after percutaneous coronary intervention (PCI) is low, but has been associated with worse clinical outcomes.
The MERLIN-TIMI 36 trial randomized 6560 pts to RAN or placebo (PLA) stratified according to whether an early invasive or conservative medical strategy was planned. The target RAN dose was 1000 mg bid and could be titrated downward at the investigator's discretion. Continuous Holter monitoring was performed for the first 7 days after randomization. Patients (RAN=737, PLA=754) with at least 2 hrs of evaluable Holter data from start of PCI or patients with at least 1 hour of evaluable Holter data if Holter was restarted within 1 hour from start of PCI were included in this post-hoc analysis. The incidence of non-sustained VT episodes (≧100 bpm lasting at least 8 beats but <30 sec) post PCI was compared using Cochran-Mantel-Haenzel test for general association, stratified by intent for early invasive strategy.

women with NSTE ACS = experiment: MERLIN-TIMI 36: outcomes in women with NSTE ACS; type: in vivo, human; conditions: ranolazine vs placebo
[3] = tested on: patients with non-ST elevation ACS; experiment: MERLIN-TIMI 36: HbA1c and hyperglycemia; type: in vivo, human
Excerpt: The proportion of patients in the MERLIN-TIMI 36 study with HBA1C ≧7% is shown in Table 28 below (and see FIG. 15).
The proportion of patients with HBA1C ≧7% (with diabetes or no diabetes) at various times during the MERLIN-TIMI 36 study is shown in Table 29 below (and FIG. 16).
HbA1c data are reported as least-square means. Patients categorized as “diabetic” had been diagnosed as diabetic before or at the time of randomization. Patients categorized as “no diabetes” had not been diagnosed as diabetic before or at the time of randomization. Some patients characterized as “no diabetes” may have been diagnosed as “diabetic” during the trial; however, these patients are still listed in the “no diabetes” category in FIG. 4B.

[4] = tested on: patients with non-ST elevation acute coronary syndrome; experiment: MERLIN-TIMI 36: arrhythmias on continuous ECG (Holter) recording, first 7 days; type: in vivo, human
Description: The safety endpoint data for incidence of clinically significant arrhythmias during 7 day Holter monitoring from MERLIN-TIMI 36 is shown in Table 24 below.
Continuous ECG (Holter) recording was performed for the first 7 days after randomization. Because of the known prolongation of the QT interval with ranolazine, analyses of a prespecified set of arrhythmias were a major objective of the trial. All arrhythmias were evaluated in the TIMI ECG Core Laboratory by cardiologists blinded to treatment and outcomes.
Continuous ECG (cECG or Holter) recording was performed for the first 7 days after randomization. Prespecified arrhythmia analyses were evaluated by a core laboratory blinded to treatment and outcomes.

[5] = tested on: patients with non-ST elevation acute coronary syndrome; experiment: MERLIN-TIMI 36: safety endpoints (death from any cause, symptomatic documented arrhythmias, CV hospitalization); type: in vivo
[6] = tested on: patients with non-ST elevation acute coronary syndrome; experiment: MERLIN-TIMI 36: ischemia on Holter / continuous ECG (CECG); type: in vivo, human; conditions: >72 hours after randomization, ranolazine vs placebo
Description: At randomization, 6355 patients (99%) had 3-lead CECG monitoring initiated (median duration 6.9 days). The primary CECG endpoint was the rate of ST dep>1 mm from baseline lasting >1 minute with heart rate at onset <100 bpm. Exploratory analyses using ST dep>0.5 mm were also performed.

[7] = tested on: patients with non-ST elevation acute coronary syndrome; experiment: MERLIN-TIMI 36: Seattle Angina Questionnaire scores at 4 months; type: in vivo, human
Excerpt: The MERLIN-TIMI 36 secondary efficacy endpoint (ITT) Seattle Angina Questionnaire scores at 4 months for anginal frequency scale are shown in Table 16 below, and scores for physical limitation scale are shown in Table 17 below.

[8] = PCI patients, average follow-up ~1 year
[9] = within 2 hours from start of PCI
[10] = Baseline (in-hospital visit prior to randomization), all patients dosed n = 3268
[11] = Diabetes at enrollment (n = 1098), Baseline
[12] = Diabetes at enrollment (n = 1098), Final Visit
[13] = Diabetes at enrollment (n = 1098), Month 4
[14] = Diabetes at enrollment (n = 1098), Month 8
[15] = Diabetes at enrollment (n = 1098), Month 16
[16] = Final Visit, all patients dosed n = 3268
[17] = Month 4, all patients dosed n = 3268
[18] = Month 8, all patients dosed n = 3268
[19] = Month 16, all patients dosed n = 3268
[20] = No Diabetes at enrollment (n = 2170), Baseline
[21] = No Diabetes at enrollment (n = 2170), Final Visit
[22] = No Diabetes at enrollment (n = 2170), Month 4
[23] = No Diabetes at enrollment (n = 2170), Month 8
[24] = No Diabetes at enrollment (n = 2170), Month 16

For `COc1ccccc1OCC(O)CN1CCN(CC(=O)Nc2c(C)cccc2C)CC1` (racemic) [Ranolazine, (±)-N-(2,6-dimethylphenyl)-4-[2-hydroxy-3-(2-methoxyphenoxy)-propyl]-1-piperazineacetamide], the “Clinically reported sudden cardiac death, no. of patients” value [1] was 56, the “CVD (cardiovascular death) - anytime, incidence” value [2, 8] was 0.9% and the “CVD (cardiovascular death) - anytime, no. of patients” value [2, 8] was 7. For the same compound, the “SCD (sudden cardiac death) - anytime, incidence” value [2, 8] was 0.1%, the “SCD (sudden cardiac death) - anytime, no. of patients” value [2, 8] was 1 and the “CVD (cardiovascular death) - 30 days, incidence” value ([2]; PCI patients) was 0.5%. For the same compound, the “CVD (cardiovascular death) - 30 days, no. of patients” value ([2]; PCI patients) was 4, the “SCD (sudden cardiac death) - 30 days, incidence” value ([2]; PCI patients) was 0.1% and the “SCD (sudden cardiac death) - 30 days, no. of patients” value ([2]; PCI patients) was 1. The “VT ≧ 8 beats, % of patients with at least 1 episode” value [2, 9] was 1.1%, the “VT ≧ 8 beats, no. of patients with at least 1 episode” value [2, 9] was 8 and the “HR, worsening angina” value (women with NSTE ACS) was 0.61. The “Patients with HbA1C ≧7%, no.” value [3, 10] was 655, the “Proportion of patients with HbA1C ≧7%” value [3, 10] was 24% and the “Patients with HbA1C ≧7%, no.” value [3, 11] was 542. The “Proportion of patients with HbA1C ≧7%” value [3, 11] was 57%, the “Patients with HbA1C ≧7%, no.” value [3, 12] was 324 and the “Proportion of patients with HbA1C ≧7%” value [3, 12] was 42%. The “Patients with HbA1C ≧7%, no.” value [3, 13] was 326, the “Proportion of patients with HbA1C ≧7%” value [3, 13] was 41% and the “Patients with HbA1C ≧7%, no.” value [3, 14] was 263. For the same compound, the “Proportion of patients with HbA1C ≧7%” value [3, 14] was 44%, the “Patients with HbA1C ≧7%, no.” value [3, 15] was 63 and the “Proportion of patients with HbA1C ≧7%” value [3, 15] was 48%. For the same compound, the “Patients with HbA1C ≧7%, no.” value [3, 16] was 416, the “Proportion of patients with HbA1C ≧7%” value [3, 16] was 17% and the “Patients with HbA1C ≧7%, no.” value [3, 17] was 404. For the same compound, the “Proportion of patients with HbA1C ≧7%” value [3, 17] was 17%, the “Patients with HbA1C ≧7%, no.” value [3, 18] was 335 and the “Proportion of patients with HbA1C ≧7%” value [3, 18] was 18%. The “Patients with HbA1C ≧7%, no.” value [3, 19] was 84, the “Proportion of patients with HbA1C ≧7%” value [3, 19] was 20% and the “Patients with HbA1C ≧7%, no.” value [3, 20] was 113. For the same compound, the “Proportion of patients with HbA1C ≧7%” value [3, 20] was 6%, the “Patients with HbA1C ≧7%, no.” value [3, 21] was 92 and the “Proportion of patients with HbA1C ≧7%” value [3, 21] was 6%. The “Patients with HbA1C ≧7%, no.” value [3, 22] was 78, the “Proportion of patients with HbA1C ≧7%” value [3, 22] was 5% and the “Patients with HbA1C ≧7%, no.” value [3, 23] was 72. The “Proportion of patients with HbA1C ≧7%” value [3, 23] was 6%, the “Patients with HbA1C ≧7%, no.” value [3, 24] was 21 and the “Proportion of patients with HbA1C ≧7%” value [3, 24] was 7%. For the same compound, the “Supraventricular tachycardia on cECG, no. of patients” value ([4]; Example 9, patients with valid cECG recording) was 1413, the “Any clinically significant arrhythmia during 7 day Holter, incidence” value ([4]; all patients dosed, n = 3268) was 71.3% and the “Any clinically significant arrhythmia during 7 day Holter, no. of pts” value ([4]; all patients dosed, n = 3268) was 2330. The “Bradycardic episode during 7 day Holter, incidence” value ([4]; all patients dosed, n = 3268) was 38.5%, the “Bradycardic episode during 7 day Holter, no. of pts” value ([4]; all patients dosed, n = 3268) was 1257 and the “New onset atrial fibrillation during 7 day Holter, incidence” value ([4]; all patients dosed, n = 3268) was 1.7%. For the same compound, the “New onset atrial fibrillation during 7 day Holter, no. of pts” value ([4]; all patients dosed, n = 3268) was 55, the “Supraventricular tachycardia (any SVT >=120 bpm) during 7 day Holter, incidence” value ([4]; all patients dosed, n = 3268) was 43.2% and the “Supraventricular tachycardia (any SVT >=120 bpm) during 7 day Holter, no. of pts” value ([4]; all patients dosed, n = 3268) was 1413. The “Ventricular tachycardia (any VT >= 100 bpm >=3 beats) during 7 day Holter, incidence” value ([4]; all patients dosed, n = 3268) was 29.0%, the “Ventricular tachycardia (any VT >= 100 bpm >=3 beats) during 7 day Holter, no. of pts” value ([4]; all patients dosed, n = 3268) was 948 and the “Δ in patients with Sustained VT (>=30 sec)” value ([4]; placebo vs ranolazine) was 0. The “Δ (%) Polymorphic VT >= 8 beats” value ([4]; ranolazine vs placebo) was −21%, the “Δ (%) VT ≧ 3 beats (≧100 b/m)” value ([4]; ranolazine vs placebo) was −17% and the “Δ (%) VT ≧ 4 beats (≧100 b/m)” value ([4]; ranolazine vs placebo) was −30%. For the same compound, the “Δ (%) VT ≧ 8 beats (<30 sec)” value ([4]; ranolazine vs placebo) was −37%, the “Death or CV hospitalization endpoint-defining events: CV hospitalization, % of pts with events” value ([5]; all patients dosed, n = 3268) was 89.3% and the “Death or CV hospitalization endpoint-defining events: CV hospitalization, no. of pts” value ([5]; all patients dosed, n = 3268) was 926. The “Death or CV hospitalization endpoint-defining events: Death, % of pts with events” value ([5]; all patients dosed, n = 3268) was 10.7%, the “Death or CV hospitalization endpoint-defining events: Death, no. of pts” value ([5]; all patients dosed, n = 3268) was 111 and the “Cardiac arrest NOS, incidence” value ([5]; human, in vivo) was 0.3%. The “Cardiac arrest NOS, no. of pts” value ([5]; human, in vivo) was 10, the “Symptomatic documented arrhythmias - overall, incidence” value ([5]; human, in vivo) was 3.0% and the “Symptomatic documented arrhythmias - overall, no. of pts” value ([5]; human, in vivo) was 99. The “Symptomatic documented bradyarrhythmias, incidence” value ([5]; human, in vivo) was 1.0%, the “Symptomatic documented bradyarrhythmias, no. of pts” value ([5]; human, in vivo) was 34 and the “Symptomatic documented supraventricular arrhythmias, incidence” value ([5]; human, in vivo) was 1.2%. The “Symptomatic documented supraventricular arrhythmias, no. of pts” value ([5]; human, in vivo) was 38, the “Symptomatic documented ventricular arrhythmias, incidence” value ([5]; human, in vivo) was 0.7% and the “Symptomatic documented ventricular arrhythmias, no. of pts” value ([5]; human, in vivo) was 22. The “HR, total mortality” value ([5]; ranolazine vs placebo) was 0.99, the “RR, CECG events” value [6] was 0.86 and the “SAQ Physical Limitation Scale score, 25th percentile-75th percentile” value ([7]; N 2339) was 55.6-94.4. The “SAQ Physical Limitation Scale score, Min-Max” value ([7]; N 2339) was 0-100, the “SAQ Anginal Frequency Scale score, 25th percentile-75th percentile” value ([7]; N 2558) was 80-100 and the “SAQ Anginal Frequency Scale score, Median” value ([7]; N 2558) was 100. The “SAQ Anginal Frequency Scale score, Min-Max” value ([7]; N 2558) was 0-100.
